# Source: patent US5093480A, “Azoxy compounds” (Kowa Company, Ltd., priority 1988, dated 1992)
# How the values were obtained:
# [1] = tested on: Candida albicans; assay: Minimum inhibitory concentration, agar dilution method, Candida albicans; format: cell-based; conditions: Sabouraud's dextrose medium; for MIC: Candida albicans
# Description: (§1) The minimum inhibitory concentrations (μg/ml), relative to test fungi, of some of the typical compounds in this invention produced in Examples to be described later were measured, and the results are tabulated below.
# (§2) *The minimum inhibitory concentrations were measured by an agar dilution
# (§3) method using a Sabouraud's dextrose medium in accordance with a standard
# (§4) method of Nippon Kagaku Ryoho Gakkai (Chemical Therapy Academy).
# [2] = tested on: Trichophyton rubrus; assay: Minimum inhibitory concentration, agar dilution method, Trichophyton rubrus; format: cell-based; conditions: Sabouraud's dextrose medium; for MIC: Trichophyton
# Description: as §1, §2, §3, §4
# [3] = tested on: Trichophyton mentagrophytes; assay: Minimum inhibitory concentration, agar dilution method, Trichophyton mentagrophytes; format: cell-based; conditions: Sabouraud's dextrose medium; for MIC: Trichophyton mentagrophytes
# Description: as §1, §2, §3, §4
# [4] = tested on: Cystococcus neoformans; assay: Minimum inhibitory concentration, agar dilution method, Cystococcus neoformans; format: cell-based; conditions: Sabouraud's dextrose medium
# Description: as §1, §2, §3, §4
# [5] = Acute toxicity to mice; conditions: mouse, in vivo, intravenous administration
# Description: The compound in this invention is low in toxicity. For example, acute toxicities LD50 to mice of the compounds in Examples 1 and 4 to be described later are both more than 100 mg/kg (intravenous administration).
# [6] = Stability in serum (thin layer chromatography and biological verification using Candida albicans); format: in vitro ADME; conditions: left to stand in serum at 37° C. for 4 hours; TLC and biological verification using Candida albicans
compound,measurement,setting,value
"CCCC/C=C/[N+]([O-])=NC(C)C(C)=NNC(N)=S (stereo not shown) [Example 35, 2-thiosemicarbazono-2-deoxo-KA-7367A]",MIC,[1],3.1 µg/mL
same,MIC,[2],3.1 µg/mL
same,MIC,[3],6.25 µg/mL
same,MIC,[4],6.25 µg/mL
"CCCC/C=C/[N+]([O-])=NC(C)C(C)=NNC(=O)Cc1c(OC)cccc1OC (stereo not shown) [Example 62, 2-[(2,6-dimethoxyphenyl)acetylhydrazono]-2-deoxo-KA-7367A]",MIC,[1],1.6 µg/mL
same,MIC,[2],3.1 µg/mL
same,MIC,[3],6.25 µg/mL
same,MIC,[4],12.5 µg/mL
"2-(2,4-dichlorodiphenylacetylhydrazono)-2-dioxo-KA-7367A [Example 79]","Minimum inhibitory concentration, Candida albicans",[1],1.6 µg/mL
same,"Minimum inhibitory concentration, Trichophyton rubrus",[2],1.6 µg/mL
same,"Minimum inhibitory concentration, Trichophyton mentagrophytes",[3],3.1 µg/mL
same,"Minimum inhibitory concentration, Cystococcus neoformans",[4],6.25 µg/mL
"CCCC/C=C/[N+]([O-])=NC(C)C(C)=NNC(=O)c1cccnc1 (stereo not shown) [Example 71, 2-nicotinoylhydrazono-2-deoxo-KA-7367A]",MIC,[1],6.25 µg/mL
same,MIC,[2],6.25 µg/mL
same,MIC,[3],6.25 µg/mL
same,MIC,[4],12.5 µg/mL
"CCCC/C=C/[N+]([O-])=NC(C)C(C)=NNC(=O)CN1CCN(C(=O)Cc2c(Cl)cccc2Cl)CC1 (stereo not shown) [Example 54, 2-[4-(2,6-dichlorophenylacetyl)-1-piperazinylacetylhydrazino]-2-deoxo-KA-7367A]",MIC,[1],3.1 µg/mL
same,MIC,[2],3.1 µg/mL
same,MIC,[3],6.25 µg/mL
same,MIC,[4],12.5 µg/mL
"CCCC/C=C/[N+]([O-])=NC(C)C(C)=NNC(=O)c1ccco1 (stereo not shown) [Example 67, 2-(2-furylcarbonylhydrazono)-2-deoxo-KA-7367A]",MIC,[1],1.6 µg/mL
same,MIC,[2],3.1 µg/mL
same,MIC,[3],3.1 µg/mL
same,MIC,[4],6.25 µg/mL
"CCCC/C=C/[N+]([O-])=NC(C)C(C)=NNC(=O)CN1CCN(C(C)=O)CC1 (stereo not shown) [Example 53, 2-(4-acetylpiperazinyl-acetylhydrazono)-2-deoxo-KA-7367A]",MIC,[1],3.1 µg/mL
same,MIC,[2],3.1 µg/mL
same,MIC,[3],6.25 µg/mL
same,MIC,[4],12.5 µg/mL
2-thenoylhydrazono-2-deoxo-KA-7367A [Example 68],"Minimum inhibitory concentration, Candida albicans",[1],3.2 µg/mL
same,"Minimum inhibitory concentration, Trichophyton rubrus",[2],6.25 µg/mL
same,"Minimum inhibitory concentration, Trichophyton mentagrophytes",[3],6.25 µg/mL
same,"Minimum inhibitory concentration, Cystococcus neoformans",[4],6.25 µg/mL
"CCCC/C=C/[N+]([O-])=NC(C)C(C)=NNC(=O)Cc1ccc(Cl)cc1Cl (stereo not shown) [Example 49, 2-(2,4-dichlorophenylacetylhydrzono)-2-deoxo-KA-7367A]",MIC,[1],1.6 µg/mL
same,MIC,[2],1.6 µg/mL
same,MIC,[3],3.1 µg/mL
same,MIC,[4],6.25 µg/mL
"CCCC/C=C/[N+]([O-])=NC(C)C(C)=NOC(C)=O (stereo not shown) [Example 24, 2-acetoxyimino-2-deoxo-KA-7367A]",MIC,[1],25 µg/mL
same,MIC,[2],6.25 µg/mL
same,MIC,[3],12.5 µg/mL
same,MIC,[4],50 µg/mL
"CCCC/C=C/[N+]([O-])=NC(C)C(C)=NOCC(=O)O (stereo not shown) [Example 4, 2-carboxymethoxyimino-2-deoxo-KA-7367A]",MIC,[1],12.5 µg/mL
same,LD50,[5],> 100 mg/kg
same,MIC,[2],3.1 µg/mL
same,MIC,[3],12.5 µg/mL
same,MIC,[4],25 µg/mL
"CCCC/C=C/[N+]([O-])=NC(C)C(C)=NOCCOCC (stereo not shown) [Example 3, 2-(2-ethoxy-ethoxyimino)-2-dioxo-KA-7367A]",MIC,[1],25 µg/mL
same,MIC,[2],6.25 µg/mL
same,MIC,[3],25 µg/mL
same,MIC,[4],50 µg/mL
"CCCC/C=C/[N+]([O-])=NC(C)C(C)=NNC(=O)Cc1cccnc1 (stereo not shown) [Example 48, 2-(3-pyridylacetylhydrazono)-2-deoxo-KA-7367A]",MIC,[1],1.6 µg/mL
same,MIC,[2],1.6 µg/mL
same,MIC,[3],3.1 µg/mL
same,MIC,[4],6.25 µg/mL
"CCCC/C=C/[N+]([O-])=NC(C)C(C)=NNC(=O)c1ccncc1 (stereo not shown) [Example 70, 2-isonicotinoylhydrazono-2-deoxo-KA-7367A]",MIC,[1],25 µg/mL
same,MIC,[2],12.5 µg/mL
same,MIC,[3],25 µg/mL
same,MIC,[4],50 µg/mL
"CCCC/C=C/[N+]([O-])=NC(C)C(C)=NOC(=O)c1ccccc1 (stereo not shown) [Example 25, 2-benzoyloxyimino-2-deoxo-KA-7367A]",MIC,[1],50 µg/mL
same,MIC,[2],3.1 µg/mL
same,MIC,[3],12.5 µg/mL
same,MIC,[4],50 µg/mL
"CCCC/C=C/[N+]([O-])=NC(C)C(C)=NOC(C)(C)C(=O)O (stereo not shown) [Example 5, 2-(1-carboxy-1-ethylmethoxyimino)-2-deoxo-KA-7367A]",MIC,[1],12.5 µg/mL
same,MIC,[2],3.1 µg/mL
same,MIC,[3],12.5 µg/mL
same,MIC,[4],25 µg/mL
"CCCC/C=C/[N+]([O-])=NC(C)C(C)=NNC(N)=O (stereo not shown) [Example 34, 2-semicarbazono-2-deoxo-KA-7367A]",MIC,[1],3.1 µg/mL
same,MIC,[2],1.6 µg/mL
same,MIC,[3],3.1 µg/mL
same,MIC,[4],3.1 µg/mL
CCCC/C=C/[N+]([O-])=NC(C)C(C)=O (stereo not shown) [KA-7367A],decomposition in serum,[6],almost decomposed
"CCCC/C=C/[N+]([O-])=NC(C)C(C)=NNC(=O)Cc1ccc(Cl)cc1 (stereo not shown) [Example 74, 2-(p-chlorophenylacetylhydrazono)-2-deoxo-KA-7367A]",MIC,[1],1.6 µg/mL
same,MIC,[2],3.1 µg/mL
same,MIC,[3],6.25 µg/mL
same,MIC,[4],6.25 µg/mL
"CCCC/C=C/[N+]([O-])=NC(C)C(C)=NO (stereo not shown) [Example 1, 2-hydroxyimino-2-deoxo-KA-7367A]",MIC,[1],12.5 µg/mL
same,LD50,[5],> 100 mg/kg
same,MIC,[2],3.1 µg/mL
same,MIC,[3],12.5 µg/mL
same,MIC,[4],25 µg/mL
"CCCC/C=C/[N+]([O-])=NC(C)C(C)=NNC(=O)C(c1ccc(Cl)cc1)c1ccccc1Cl (stereo not shown) [Example 78, 2-(2,4'-dichlorodiphenylacetylhydrazono)-2-deoxo-KA-7367A]",MIC,[1],0.8 µg/mL
same,MIC,[2],3.1 µg/mL
same,MIC,[3],3.1 µg/mL
same,MIC,[4],6.25 µg/mL
"CCCC/C=C/[N+]([O-])=NC(C)C(C)=NOC(=O)c1ccc(Cl)cc1 (stereo not shown) [Example 27, 2-(p-chlorobenzoyloxyimino)-2-deoxo-KA-7367A]",MIC,[1],100 µg/mL
same,MIC,[2],6.25 µg/mL
same,MIC,[3],12.5 µg/mL
same,MIC,[4],100 µg/mL
"CCCC/C=C/[N+]([O-])=NC(C)C(C)=NNC(=O)Cn1ccnc1 (stereo not shown) [Example 47, 2-(1-imidazolylacetylhydrazono)-2-deoxo-KA-7367A]",MIC,[1],6.25 µg/mL
same,MIC,[2],12.5 µg/mL
same,MIC,[3],25 µg/mL
same,MIC,[4],50 µg/mL
"CCCC/C=C/[N+]([O-])=NC(C)C(C)=NNC(C)=O (stereo not shown) [Example 43, 2-acetylhydrazono-2-deoxo-KA-7367A]",MIC,[1],1.6 µg/mL
same,MIC,[2],3.1 µg/mL
same,MIC,[3],6.25 µg/mL
same,MIC,[4],3.1 µg/mL
"CCCC/C=C/[N+]([O-])=NC(C)C(C)=NNC(=O)Cc1c(F)cccc1F (stereo not shown) [Example 61, 2-[(2,6-difluorophenyl)acetylhydrazono]-2-deoxo-KA-7367A]",MIC,[1],0.8 µg/mL
same,MIC,[2],1.6 µg/mL
same,MIC,[3],3.1 µg/mL
same,MIC,[4],6.25 µg/mL
"CCCC/C=C/[N+]([O-])=NC(C)C(C)=NNC(=O)Cc1cccc2ccccc12 (stereo not drawn) [Example 52, 2-(alpha-naphthylacetylhydrazono)-2-deoxo-KA-7367A]",MIC,[1],3.1 µg/mL
same,MIC,[2],3.1 µg/mL
same,MIC,[3],6.25 µg/mL
same,MIC,[4],12.5 µg/mL
